# Measurements published in patent publication US7829118B1, “Modified hyaluronic acid polymer compositions and related methods” (Carbylan Biosurgery, Inc., priority 2009, dated 2010).
# Where “and” joins values, the source holds several entries; their conditions need not be identical. Equal entries are not always repeated.
# System: Femoral Cartilage (medial femoral condyle) of goat stifle joint
# Assay: Modified Mankin scoring of femoral cartilage after intra-articular injection in goats (Example 34)
# Assay type: in vivo
# Conditions: for Total Mankin Score / Mankin Score: Tide Mark Integrity / Mankin Score: Cells / Mankin Score: Safranin-O Stain / Mankin Score: Structure: RFC
# Protocol: A lightly crosslinked hydrogel prepared by reaction of vinyl-sulfone-modified hyaluronic acid with PEG-dithiol (HA-VS-PEG-(SH)2), containing the corticosteroid, triamcinolone acetonide, was injected into the intraarticular space of the stifle joint of female goats. Morphological, synovial fluid and histological examinations were conducted to evaluate local and systemic effects of such injections. Details of the study are provided below.
# All test materials were stored at room temperature prior to use. For each Test or Control Material, a 1.5 ml dosage was prepared for each individual intra-articular injection.
# Study design was as follows.
# The basic procedure for injection was identical for all subjects. All injections were performed under strict asepsis. The animals were anesthetized with an intravenous injection of Diazepam (0.1-0.5 mg/kg) and Ketamine (4.4-7.5 mg/kg) to effect. Each knee was physically examined for drawer, range of motion, swelling, temperature, crepitus, patella tracking, and valgus/varus abnormalities
# All injections were conducted utilizing routine aseptic techniques. The left and right stifles were prepared for injection by clipping the areas, then cleansing them with chlorohexidine scrub. The animal was placed in dorsal recumbency. The right stifle was cleansed with chlorohexidine scrub alternating with 70% isopropyl alcohol three times and painted with iodine solution.
# A standard technique was used to inject each stifle joint. A 2-inch by 21gauge sized sterile needle was introduced into the intra-articular space via an anteromedial approach. The lateral intercondylar notch wall of the medial femoral condyle was felt and the needle backed slightly off. 1.5 ml of the appropriate Test Material was injected into the right joint. The injection needle was removed and pressure was maintained on the injection site. The injected stifle joint was then cycled 20-times through a full range of motion. Immediately following this, the left stifle joint was cleansed with chlorohexidine scrub alternating with 70% isopropyl alcohol three times and painted with iodine solution and 1.5 ml of the Control Material was injected into the left stifle joint in a similar manner as described above for the right stifle. The injection needle was removed and pressure maintained on the injection site. The injected stifle joint was then cycled 20-times through a full range of motion.
# Necropsy: Animals were humanely sacrificed at either 14 days or 28 days day post initial injection with an intravenous injection consisting of Diazepam 0.22 mg/kg and Ketamine 10 mg/kg for induction of general anesthesia. Following this, the anesthetized animals were given an IV overdose of concentrated potassium chloride (KCl) until the cardiac arrest had been verified.
# Immediately after dissection and following gross joint surface evaluation a sagital section of each joint was cut through the medial femoral condyle (MFC). These sections were placed individually in 10% neutral buffered formalin. The fixed tissue was shipped by overnight carrier to Premier Laboratories for processing. The right and left MFC sections were processed using standard histological techniques and stained with hematoxylin and eosin (H&E) and Safranin-O (SAF-O) with a fast green counter stain. The slides from the MFC sections were evaluated by the Mankin Scoring System for osteoarthritis as described in Table 12.
# [1] = Group 3, 2mg/ml, 14 day evaluation, MEAN
# [2] = Group 7, 2mg/ml, 28 day evaluation, MEAN
# [3] = Group 4, 8mg/ml, 14 day evaluation, MEAN
# [4] = Group 8, 8mg/ml, 28 day evaluation, MEAN, animal that died prematurely not included
compound,measurement,setting,value
"CC1(C)O[C@@H]2C[C@H]3[C@@H]4CCC5=CC(=O)C=C[C@]5(C)[C@@]4(F)[C@@H](O)C[C@]3(C)[C@]2(C(=O)CO)O1 [Triamcinolone Acetonide 2mg/ml, triamcinolone acetonide]",Total Mankin Score,"Group 3, 2mg/ml, 14 day evaluation, right stifle 1.5 ml intra-articular, individual goats, maximal 14, normal 0",4.0 and 7.0 and 8.0
same,Mankin Score: Tide Mark Integrity,"Group 3, 2mg/ml, 14 day evaluation, right stifle 1.5 ml intra-articular, individual goats, score 0-1",0.0
same,Mankin Score: Cells,"Group 3, 2mg/ml, 14 day evaluation, right stifle 1.5 ml intra-articular, individual goats, score 0-3",0.0 and 1.0 (2×)
same,Mankin Score: Safranin-O Stain,"Group 3, 2mg/ml, 14 day evaluation, right stifle 1.5 ml intra-articular, individual goats, score 0-4",4.0 and 2.0 and 3.0
same,Mankin Score: Structure,"Group 3, 2mg/ml, 14 day evaluation, right stifle 1.5 ml intra-articular, individual goats, score 0-6",0.0 and 4.0 (2×)
same,Mankin Score: Cells,[1],0.7
same,Mankin Score: Safranin-O Stain,[1],3.0
same,Mankin Score: Structure,[1],2.7
same,Mankin Score: Tide Mark Integrity,[1],0.0
same,Total Mankin Score,[1],6.3
same,Total Mankin Score,"Group 7, 2mg/ml, 28 day evaluation, right stifle 1.5 ml intra-articular, individual goats, maximal 14, normal 0",6.0 and 9.0 and 10.0
same,Mankin Score: Tide Mark Integrity,"Group 7, 2mg/ml, 28 day evaluation, right stifle 1.5 ml intra-articular, individual goats, score 0-1",0.0
same,Mankin Score: Cells,"Group 7, 2mg/ml, 28 day evaluation, right stifle 1.5 ml intra-articular, individual goats, score 0-3",2.0 (2×) and 3.0
same,Mankin Score: Safranin-O Stain,"Group 7, 2mg/ml, 28 day evaluation, right stifle 1.5 ml intra-articular, individual goats, score 0-4",4.0 and 3.0 (2×)
same,Mankin Score: Structure,"Group 7, 2mg/ml, 28 day evaluation, right stifle 1.5 ml intra-articular, individual goats, score 0-6",0.0 and 4.0 (2×)
same,Mankin Score: Cells,[2],2.3
same,Mankin Score: Safranin-O Stain,[2],3.3
same,Mankin Score: Structure,[2],2.7
same,Mankin Score: Tide Mark Integrity,[2],0.0
same,Total Mankin Score,[2],8.3
"CC1(C)O[C@@H]2C[C@H]3[C@@H]4CCC5=CC(=O)C=C[C@]5(C)[C@@]4(F)[C@@H](O)C[C@]3(C)[C@]2(C(=O)CO)O1 [Triamcinolone Acetonide 8mg/ml, triamcinolone acetonide]",Total Mankin Score,"Group 4, 8mg/ml, 14 day evaluation, right stifle 1.5 ml intra-articular, individual goats, maximal 14, normal 0",9.0 and 3.0 and 4.0
same,Mankin Score: Tide Mark Integrity,"Group 4, 8mg/ml, 14 day evaluation, right stifle 1.5 ml intra-articular, individual goats, score 0-1",0.0
same,Mankin Score: Cells,"Group 4, 8mg/ml, 14 day evaluation, right stifle 1.5 ml intra-articular, individual goats, score 0-3",1.0 and 0.0 (2×)
same,Mankin Score: Safranin-O Stain,"Group 4, 8mg/ml, 14 day evaluation, right stifle 1.5 ml intra-articular, individual goats, score 0-4",3.0 (2×) and 4.0
same,Mankin Score: Structure,"Group 4, 8mg/ml, 14 day evaluation, right stifle 1.5 ml intra-articular, individual goats, score 0-6",5.0 and 0.0 (2×)
same,Mankin Score: Cells,[3],0.3
same,Mankin Score: Safranin-O Stain,[3],3.3
same,Mankin Score: Structure,[3],1.7
same,Mankin Score: Tide Mark Integrity,[3],0.0
same,Total Mankin Score,[3],5.3
same,Total Mankin Score,"Group 8, 8mg/ml, 28 day evaluation, right stifle 1.5 ml intra-articular, individual goats (3588 RFC* died prematurely, 19 days), maximal 14, normal 0",12.0 and 6.0
same,Total Mankin Score,"Group 8, 8mg/ml, 28 day evaluation, right stifle 1.5 ml intra-articular, individual goats (3588 RFC* died prematurely, 19 days), maximal 14, normal 0, listed as Triamcinolone Acetonide 8mg/m1",10.0
same,Mankin Score: Tide Mark Integrity,"Group 8, 8mg/ml, 28 day evaluation, right stifle 1.5 ml intra-articular, individual goats (3588 RFC* died prematurely, 19 days), score 0-1",0.0
same,Mankin Score: Cells,"Group 8, 8mg/ml, 28 day evaluation, right stifle 1.5 ml intra-articular, individual goats (3588 RFC* died prematurely, 19 days), score 0-3",3.0 and 1.0
same,Mankin Score: Cells,"Group 8, 8mg/ml, 28 day evaluation, right stifle 1.5 ml intra-articular, individual goats (3588 RFC* died prematurely, 19 days), score 0-3, listed as Triamcinolone Acetonide 8mg/m1",3.0
same,Mankin Score: Safranin-O Stain,"Group 8, 8mg/ml, 28 day evaluation, right stifle 1.5 ml intra-articular, individual goats (3588 RFC* died prematurely, 19 days), score 0-4",4.0
same,Mankin Score: Safranin-O Stain,"Group 8, 8mg/ml, 28 day evaluation, right stifle 1.5 ml intra-articular, individual goats (3588 RFC* died prematurely, 19 days), score 0-4, listed as Triamcinolone Acetonide 8mg/m1",3.0
same,Mankin Score: Structure,"Group 8, 8mg/ml, 28 day evaluation, right stifle 1.5 ml intra-articular, individual goats (3588 RFC* died prematurely, 19 days), score 0-6",5.0 and 1.0
same,Mankin Score: Structure,"Group 8, 8mg/ml, 28 day evaluation, right stifle 1.5 ml intra-articular, individual goats (3588 RFC* died prematurely, 19 days), score 0-6, listed as Triamcinolone Acetonide 8mg/m1",4.0
same,Mankin Score: Cells,[4],2.0
same,Mankin Score: Safranin-O Stain,[4],4.0
same,Mankin Score: Structure,[4],3.0
same,Mankin Score: Tide Mark Integrity,[4],0.0
same,Total Mankin Score,[4],9.0
"CC1(C)O[C@@H]2C[C@H]3[C@@H]4CCC5=CC(=O)C=C[C@]5(C)[C@@]4(F)[C@@H](O)C[C@]3(C)[C@]2(C(=O)CO)O1 [Triamcinolone Acetonide, triamcinolone acetonide]",loss of Safranin O staining intensity portion of the modified Mankin score compared to either Groups 5 or 6,"Day 28, Groups 7 and 8 (2 and 8 mg/ml)",mild increase
same,change in modified Mankin scores from Day 14 to Day 28,"goat stifle, 1.5 ml intra-articular",increase
